The subject of one data set is Influenza A virus. As to the kind of experiment: Antiviral activity against Influenza A virus (A/Korea/KBNP-0028/2000(H9N2)) infected in chicken egg after 5 days by hemagglutinination assay. The data set is classed as functional, organism-based. The note with it: 120 h.
A short description of data set [1]: Selectivity index, ratio of CC50 for CEF cells to EC50 for Influenza A virus (A/Korea/KBNP-0028/2000(H9N2)). The data set is classed as toxicity, cell-based. The note with it: chicken.
Data set [2] in a line: Cytotoxicity against CEF cells by MTT assay. The data set is classed as cell-based, Gallus gallus. The note with it: chicken.

pEC50: −log10 of the molar value.

Broadly, the pEC50 is the negative decadic logarithm of the EC50, by convention in mol/L. What is called CC50 is the concentration that lowers cell viability or growth by half. Low values mean greater toxicity to the cells, high ones lower toxicity to the cells. Regarding `O=C(CCc1ccc(O)cc1)C[C@H](CCc1cccc(O)c1)O[C@@H]1OC[C@@H](O)[C@H](O)[C@H]1O`, in the data set on Influenza A virus, the pEC50 was 4.25. For the same compound, the selectivity ratio in data set [1] was above 10. Also, the half-maximal cytotoxic concentration (CC50) in data set [2] was above 560 µM.

The compound `COc1cc(/C=C/C(=O)O[C@H]2[C@H](O[C@@H](CCc3ccc(O)c(O)c3)CC(=O)CCc3ccc(O)c(O)c3)OC[C@@H](O)[C@@H]2O)ccc1O` [OREGONOYL B] showed a pEC50 in the data set with Influenza A virus below 3.46. The compound further registered a CC50 in data set [2] above 500 µM.

The compound `O=C(CCc1ccc(O)c(O)c1)C[C@@H](O)CCc1ccc(O)c(O)c1` [HIRSUTANONOL] had a pEC50 in the data set with Influenza A virus below 3.46. Moreover, the CC50 in data set [2] was above 500 µM.

In the case of `CC(=O)N[C@H]1[C@H]([C@H](O)[C@H](O)CO)OC(C(=O)O)=C[C@@H]1N=C(N)N` [ZANAMIVIR], the selectivity ratio in data set [1] was above 44. This compound also showed a CC50 in data set [2] above 753 µM.

As to `O=C(/C=C/CCc1ccc(O)c(O)c1)CCc1ccc(O)c(O)c1` [DEHYDROHIRSUTANONOL], the pEC50 in the data set on Influenza A virus is below 3.46. This compound also showed a CC50 in data set [2] above 500 µM.

As to `O=C(CCc1ccc(O)c(O)c1)C[C@H](CCc1cccc(O)c1)O[C@@H]1OC[C@@H](O)[C@H](O)[C@H]1O` [ALNUSIDE A], in the data set with Influenza A virus, the pEC50 is below 3.46. In data set [2], this compound gave a CC50 above 500 µM.

The compound `O=C(CCc1ccc(O)c(O)c1)C[C@H](CCc1ccc(O)c(O)c1)O[C@@H]1OC[C@@H](O)[C@H](O)[C@H]1OC(=O)/C=C/c1ccc(O)cc1` [OREGONOYL A] gave a pEC50 in the data set on Influenza A virus below 3.46. In data set [2], this compound registered a CC50 above 500 µM.

The record behind these values is ChEMBL document CHEMBL1159081, “Anti-influenza diarylheptanoids from the bark of Alnus japonica” (Bioorg Med Chem Lett, 2010).
